Assay results taken from US10010614B2, “Derivatives of GLP-1 like peptides, and uses thereof” (Novo Nordisk A/S, priority 2013, dated 2018).
Numbered stars: 1 amine (or outer) side, 2 acyl side, 3 side chain; on linkers, the order of the positions; unused ones are H or OH. Square brackets hold non-standard residues; d marks the D form. Side chains are listed from the residue outwards. Peptide text beside a SMILES is read from it. * marks the point of attachment. X2 = O=C(O)CCCCCCCCCCCCCCCCCCC(=O)NC[C@H]1CC[C@H](C(=O)N[C@@H](CCC(=O)NCCOCCOCCN*)C(=O)O)CC1; C20 diacid = O=C(O)CCCCCCCCCCCCCCCCCCC(=O)*; γGlu = O=C(O)[C@H](CCC(=O)[*:2])N[*:1]; Trx = NC[C@H]1CC[C@H](C(=O)O)CC1; Suc = O=C(CCC(=O)[*:2])[*:1]; AEEA = NCCOCCOCC(=O)O; Aib = CC(C)(N)C(=O)O

What was measured:
[1] = molecular target: T1, human GLP-1 receptor (Homo sapiens, UniProt P43220); assay: In vitro potency, CRE luciferase reporter gene assay in BHK cells expressing the human GLP-1 receptor; type: cell-based; details: whole cell reporter gene assay, 3 h incubation, no HSA, averages of at least two replicates
T1 construct: expressed in transfected cells; host or cells: membranes prepared from BHK cells (parent line BHKTS13), clone FCW467-12A
Description: The purpose of this example is to test the activity, or potency, of the GLP-1 derivatives in vitro. The in vitro potency is the measure of human GLP-1 receptor activation in a whole cell assay.
Semaglutide was included for comparison.
In vitro potency was determined by measuring the response of the human GLP-1 receptor in a reporter gene assay. The assay was performed in a stably transfected BHK cell line that expresses the human GLP-1 receptor and contains the DNA for the cAMP response element (CRE) coupled to a promoter and the gene for firefly luciferase (CRE luciferase). When the human GLP-1 receptor is activated it results in the production of cAMP, which in turn results in the luciferase protein being expressed. When assay incubation is completed the luciferase substrate (luciferin) is added and the enzyme converts luciferin to oxyluciferin to produce bioluminescence. The luminescence is measured as the readout for the assay.
The cells used in this assay (clone FCW467-12A/KZ10-1) were BHK cells with BHKTS13 as a parent cell line. The cells were derived from a clone (FCW467-12A) that expresses the human GLP-1 receptor and were established by further transfection with CRE luciferase to obtain the current clone.
The cells were cultured at 5% CO2 in Cell Culture Medium. They were aliquoted and stored in liquid nitrogen. Before each assay an aliquot is taken up and washed twice in PBS before being suspended at the desired concentration in the assay specific buffer. For 96-well plates the suspension was made to give a final concentration of 5×10^3 cells/well.
The following chemicals were used in the assay: Pluronic F-68 (10%) (Gibco 2404), human serum albumin (HSA) (Sigma A9511), ovalbumin (Sigma A5503), DMEM w/o phenol red (Gibco 11880-028), 1 M Hepes (Gibco 15630), Glutamax 100× (Gibco 35050) and steadylite plus (PerkinElmer 6016757).
Cell Culture Medium consisted of DMEM medium with 10% FBS (Fetal Bovine Serum; Invitrogen 16140-071), 1 mg/ml G418 (Invitrogen 15140-122), 240 nM MTX (methotrexate; Sigma M9929) and 1% pen/strep (penicillin/streptomycin; Invitrogen 15140-122).
Assay Medium consisted of DMEM w/o phenol red, 10 mM Hepes and 1× Glutamax. The Assay Buffer consisted of 2% ovalbumin and 0.2% Pluronic F-68 in Assay Medium.
1) Cell stocks were thawed in a 37° C. water bath.
2) Cells were washed three times in PBS.
3) The cells were counted and adjusted to 5×10^3 cells/50 μl (1×10^5 cells/ml) in Assay Medium. A 50 μl aliquot of cells was transferred to each well in the assay plate.
4) Stocks of the test compounds and reference compounds were diluted to a concentration of 0.2 μM in Assay Buffer. Compounds were diluted 10-fold to give the following concentrations: 2×10^−7 M, […]; 2×10^−9 M, 2×10^−10 M, 2×10^−11 M, 2×10^−12 M, 2×10^−13 M, and 2×10^−14 M. 5) A 50 μl aliquot of compound or blank was transferred from the dilution plate to the assay plate. Compounds were tested at the following final concentrations: 1×10^−7 M, 1×10^−8 M; 1×10^−9 M, 1×10^−10 M, 1×10^−11 M, 1×10^−12 M, 1×10^−13 M, and 1×10^−14 M. 6) The assay plate was incubated for 3 h in a 5% CO2 incubator at 37° C. 7) The assay plate was removed from the incubator and allowed to stand at room temperature for 15 min. 8) A 100 μl aliquot of steadylite plus reagent was added to each well of the assay plate (reagent was light sensitive). 9) Each assay plate was covered with aluminum foil to protect it from light and shaken for 30 min at room temperature. 10) Each assay plate was read in a Packard TopCount NXT instrument. Calculations and Results
The data from the TopCount instrument were transferred to GraphPad Prism software. The software performs a non-linear regression (log(agonist) vs response).
A minimum of two replicates was measured for each sample. The reported values are averages of the replicates.

[2] = molecular target: T1, human GLP-1 receptor; assay: GLP-1 receptor binding, competitive binding assay (125I-GLP-1, SPA) on isolated membranes;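 also: test compounds added at a range of concentrations to membranes from cells expressing the human GLP-1 receptor, scored by displacement of labelled ligand, read with WGA SPA beads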
Description: The purpose of this example is to test the receptor binding of the GLP-1 derivatives in vitro. The receptor binding is a measure of affinity of a derivative for the human GLP-1 receptor.
In this type of assay a labelled ligand (in this case ^125I-GLP-1) is bound to the receptor. Each derivative is added in a series of concentrations to isolated membranes containing the human GLP-1 receptor and displacement of the labelled ligand is monitored. The receptor binding is reported as the concentration at which half of the labelled ligand is displaced from the receptor, the IC50 value.
The following chemicals were used in the assay: Human serum albumin (HSA) (Sigma A1653), DMEM w/o phenol red (Gibco 11880-028), Pen/strep (Invitrogen 15140-122), G418 (Invitrogen 10131-027), 1 M Hepes (Gibco 15630), EDTA (Invitrogen 15575-038), PBS (Invitrogen 14190-094), fetal calf serum (Invitrogen 16140-071), EGTA, MgCl2 (Merck 1.05832.1000), Tween 20 (Amresco 0850C335), SPA particles (wheat germ agglutinin (WGA) SPA beads, Perkin Elmer RPNQ0001), [^125I]-GLP-1]-(7-36)NH2 (produced in-house), OptiPlate™-96 (Packard 6005290).
Buffer 1 consisted of 20 mM Na-HEPES plus 10 mM EDTA and pH was adjusted to 7.4. Buffer 2 consisted of 20 mM Na-HEPES plus 0.1 mM EDTA and pH was adjusted to 7.4. Assay buffer consisted of 50 mM HEPES supplemented with 5 mM EGTA, 5 mM MgCl2, 0.005% Tween 20 and pH was adjusted to 7.4. An 8% albumin stock consisted of HSA dissolved at 8% (w/v) in assay buffer. An 0.02% albumin stock consisted of HSA dissolved at 0.02% (w/v) in assay buffer.
The cells express the human GLP-1 receptor.
The cells were grown at 5% CO2 in DMEM, 10% fetal calf serum, 1% Pen/Strep (Penicillin/Streptomycin) and 1.0 mg/ml of the selection marker G418.
To make a membrane preparation the cells were grown to approximately 80% confluence. The cells were washed twice in phosphate-buffered saline and harvested. The cells were pelleted using a brief centrifugation and the cell pellet was kept on ice. The cell pellet was homogenised with ULTRA-THURRAX™ dispersing instrument for 20-30 seconds in a suitable amount of buffer 1 (e.g., 10 ml). The homogenate was centrifuged for 15 minutes. The pellet was re-suspended (homogenised) in 10 ml buffer 2 and centrifuged. This step was repeated once more. The resulting pellet was re-suspended in buffer 2 and the protein concentration was determined. The membranes were aliquoted and stored at minus 80° C.
For the receptor binding assay in the presence of low HSA (0.005%) 50 μl of the assay buffer was added to each well of an assay plate.
For the receptor binding assay in the presence of high HSA (2%) 50 μl of the 8% albumin stock was added to each well of an assay plate.
Cell membrane aliquots were thawed and diluted to their working concentration. Fifty μl were added to each well in the assay plate.
WGA SPA beads were suspended in assay buffer at 20 mg/ml. The suspension was diluted to 10 mg/ml in assay buffer just prior to addition to the assay plate. Fifty μl were added to each well in the assay plate.
The incubation was started by adding 25 μl of 480 pM solution of [^125I]-GLP-1]-(7-36)NH2 to each well of the assay plate. A 25 μl aliquot was reserved for measuring total counts/well.
The assay plate was incubated for 2 h at 30° C.
The assay plate was centrifuged for 10 min.
The assay plate was read in a Packard TopCount NXT instrument.
The data from the TopCount instrument were transferred to GraphPad Prism software. The software averaged the values for the replicates and performed a non-linear regression. IC50 values were calculated by the software and reported in nM.

[3] = High HSA IC50 (nM), high serum albumin (2.0% HSA final assay concentration)
[4] = Low HSA IC50 (nM), low serum albumin (max. 0.001% final assay concentration)

T1 sequence (P43220 24-463): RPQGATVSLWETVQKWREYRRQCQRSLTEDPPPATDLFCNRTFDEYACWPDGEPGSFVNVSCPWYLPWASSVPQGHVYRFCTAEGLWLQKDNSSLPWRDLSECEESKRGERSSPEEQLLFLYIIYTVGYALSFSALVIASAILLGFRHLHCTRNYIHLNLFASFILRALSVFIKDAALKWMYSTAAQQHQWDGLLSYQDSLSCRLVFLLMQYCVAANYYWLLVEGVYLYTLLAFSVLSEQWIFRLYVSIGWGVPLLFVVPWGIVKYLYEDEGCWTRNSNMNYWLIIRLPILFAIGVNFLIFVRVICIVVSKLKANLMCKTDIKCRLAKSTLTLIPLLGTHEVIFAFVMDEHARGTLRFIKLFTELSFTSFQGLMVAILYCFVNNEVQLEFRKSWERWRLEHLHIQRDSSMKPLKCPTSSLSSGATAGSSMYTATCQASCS

SMILES | EC50 [1] [nM] | IC50 [2, 3] [nM] | IC50 [2, 4] [nM]
CC[C@H](C)[C@H](NC(=O)[C@H](Cc1ccccc1)NC(=O)[C@H](CCC(=O)O)NC(=O)[C@H](CCCNC(=N)N)NC(=O)[C@H](C)NC(=O)[C@H](C)NC(=O)[C@H](CCC(N)=O)NC(=O)[C@H](CCC(=O)O)NC(=O)[C@H](CCC(=O)O)NC(=O)[C@H](CC(C)C)NC(=O)[C@H](Cc1ccc(O)cc1)NC(=O)[C@H](CO)NC(=O)[C@H](CO)NC(=O)[C@@H](NC(=O)[C@H](CC(=O)O)NC(=O)[C@H](CO)NC(=O)[C@@H](NC(=O)[C@H](Cc1ccccc1)NC(=O)[C@@H](NC(=O)CNC(=O)[C@H](CCC(=O)O)NC(=O)C(C)(C)NC(=O)[C@@H](N)Cc1c[nH]cn1)[C@@H](C)O)[C@@H](C)O)C(C)C)C(=O)N[C@@H](C)C(=O)N[C@@H](Cc1c[nH]c2ccccc12)C(=O)N[C@@H](CC(C)C)C(=O)N[C@H](C(=O)N[C@@H](CCCNC(=N)N)C(=O)NCC(=O)N[C@@H](CCCNC(=N)N)C(=O)NCC(=O)N[C@@H](CCCCNC(=O)CCC(=O)NCCOCCOCCNC(=O)CC[C@H](NC(=O)[C@H]1CC[C@H](CNC(=O)CCCCCCCCCCCCCCCCCCC(=O)O)CC1)C(=O)O)C(=O)NCC(=O)NCC(=O)N[C@@H](CO)C(=O)N[C@@H](CCCCNC(=O)CCC(=O)NCCOCCOCCNC(=O)CC[C@H](NC(=O)[C@H]1CC[C@H](CNC(=O)CCCCCCCCCCCCCCCCCCC(=O)O)CC1)C(=O)O)C(=O)O)C(C)C [Example 23] (H-H[Aib]EGTFTSDVSSYLEEQAAREFIAWLVRGRGK([Suc-X2])GGSK([Suc-X2])-OH) | 0.022 | 201 | 1.4
CC[C@H](C)[C@H](NC(=O)[C@H](Cc1ccccc1)NC(=O)[C@H](CCC(=O)O)NC(=O)[C@H](CCCNC(=N)N)NC(=O)[C@H](C)NC(=O)[C@H](C)NC(=O)[C@H](CCC(N)=O)NC(=O)[C@H](CCC(=O)O)NC(=O)[C@H](CCC(=O)O)NC(=O)[C@H](CC(C)C)NC(=O)[C@H](Cc1ccc(O)cc1)NC(=O)[C@H](CO)NC(=O)[C@H](CO)NC(=O)[C@@H](NC(=O)[C@H](CC(=O)O)NC(=O)[C@H](CO)NC(=O)[C@@H](NC(=O)[C@H](Cc1ccccc1)NC(=O)[C@@H](NC(=O)CNC(=O)[C@H](CCC(=O)O)NC(=O)C(C)(C)NC(=O)[C@@H](N)Cc1c[nH]cn1)[C@@H](C)O)[C@@H](C)O)C(C)C)C(=O)N[C@@H](C)C(=O)N[C@@H](Cc1c[nH]c2ccccc12)C(=O)N[C@@H](CC(C)C)C(=O)N[C@H](C(=O)N[C@@H](CCCNC(=N)N)C(=O)NCC(=O)N[C@@H](CCCCNC(=O)COCCOCCNC(=O)COCCOCCNC(=O)CC[C@H](NC(=O)[C@H]1CC[C@H](CNC(=O)CCCCCCCCCCCCCCCCCCC(=O)O)CC1)C(=O)O)C(=O)NCC(=O)N[C@@H](CCC(=O)O)C(=O)NCC(=O)N1CCC[C@H]1C(=O)N[C@@H](C)C(=O)N[C@@H](CCCCNC(=O)COCCOCCNC(=O)COCCOCCNC(=O)CC[C@H](NC(=O)[C@H]1CC[C@H](CNC(=O)CCCCCCCCCCCCCCCCCCC(=O)O)CC1)C(=O)O)C(=O)O)C(C)C [Example 16] (H-H[Aib]EGTFTSDVSSYLEEQAAREFIAWLVRGK([AEEA-AEEA-γGlu-Trx-C20 diacid])GEGPAK([AEEA-AEEA-γGlu-Trx-C20 diacid])-OH) | 0.025 | 602 | 1.4
